Reference: US10919841B2, “Monoamine reuptake inhibitors” (Research Triangle Institute, priority 2009, dated 2021)
Read-outs that look alike come from different tables or passages of the source.

How the values were obtained:
(h)DAT [1] = target: T1, (h)DAT (Homo sapiens, UniProt Q01959); test: competition binding with [125I]RTI-55 at (h)DAT stably expressed in HEK293 cells; details: for Ki: mean ± standard error of three independent experiments
T1 construct: expressed in transfected cells

(h)SERT [2] = target: T2, (h)SERT (Homo sapiens, UniProt P31645); test: block of [3H]serotonin reuptake in HEK-(h)SERT cells; format: cell-based
T2 construct: expressed in transfected cells; host or cells: HEK293
T2 sequence (P31645 whole entry): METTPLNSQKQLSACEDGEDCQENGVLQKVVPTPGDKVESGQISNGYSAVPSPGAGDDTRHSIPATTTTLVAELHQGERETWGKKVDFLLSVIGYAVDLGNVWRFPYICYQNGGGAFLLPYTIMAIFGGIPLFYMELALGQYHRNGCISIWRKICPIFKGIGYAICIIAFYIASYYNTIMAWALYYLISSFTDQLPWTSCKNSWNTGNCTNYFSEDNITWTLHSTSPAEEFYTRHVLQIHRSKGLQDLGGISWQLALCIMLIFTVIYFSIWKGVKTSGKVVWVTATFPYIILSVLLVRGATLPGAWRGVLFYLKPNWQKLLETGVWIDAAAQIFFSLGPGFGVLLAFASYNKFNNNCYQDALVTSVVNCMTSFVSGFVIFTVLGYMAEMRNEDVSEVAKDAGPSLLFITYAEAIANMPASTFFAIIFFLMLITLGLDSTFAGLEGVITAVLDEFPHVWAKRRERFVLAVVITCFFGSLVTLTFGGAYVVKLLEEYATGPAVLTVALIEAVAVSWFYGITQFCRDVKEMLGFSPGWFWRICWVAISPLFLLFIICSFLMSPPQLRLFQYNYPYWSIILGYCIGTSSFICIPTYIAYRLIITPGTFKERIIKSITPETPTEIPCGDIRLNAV

(h)NET [3] = target: T3, (h)NET (Homo sapiens, UniProt P23975); test: competition binding with [125I]RTI-55 at (h)NET stably expressed in HEK293 cells; details: for Ki: read-out: Binding, Ki NET, mean ± standard error of three independent experiments
T3 sequence (P23975 whole entry): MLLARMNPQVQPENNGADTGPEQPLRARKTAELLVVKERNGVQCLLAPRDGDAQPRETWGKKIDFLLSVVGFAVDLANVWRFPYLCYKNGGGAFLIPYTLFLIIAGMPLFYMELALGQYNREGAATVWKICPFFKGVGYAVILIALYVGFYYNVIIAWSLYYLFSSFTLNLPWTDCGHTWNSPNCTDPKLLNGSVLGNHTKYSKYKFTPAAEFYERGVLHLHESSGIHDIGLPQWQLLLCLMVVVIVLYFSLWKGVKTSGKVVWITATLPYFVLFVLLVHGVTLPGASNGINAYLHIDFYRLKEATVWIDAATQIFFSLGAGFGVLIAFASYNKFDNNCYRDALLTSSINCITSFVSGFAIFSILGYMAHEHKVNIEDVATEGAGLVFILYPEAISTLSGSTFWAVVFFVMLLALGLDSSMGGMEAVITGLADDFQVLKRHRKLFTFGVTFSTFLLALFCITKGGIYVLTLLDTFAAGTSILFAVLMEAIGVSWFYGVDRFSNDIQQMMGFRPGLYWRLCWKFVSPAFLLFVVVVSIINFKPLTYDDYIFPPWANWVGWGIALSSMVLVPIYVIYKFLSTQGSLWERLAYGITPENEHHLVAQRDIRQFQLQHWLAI

(h)SERT [4] = target: T2, (h)SERT; details: read-out: Binding, Ki SERT
(h)DAT [5] = target: T1, (h)DAT; test: block of [3H]dopamine reuptake in HEK-(h)DAT cells; format: cell-based; details: for times more potent than bupropion as DA uptake inhibitor: relative to bupropion
mice [6] = test: locomotor activity, 1-h observation protocol; format: in vivo; details: for Locomotor Activity 1-Hour ED50 / ED50: dose to produce 50% of the compound's maximal effect, 1-h; for Emax / ED50: Mus musculus; for Emax: 0.5 h, read-out: Locomotor Activity 1-Hour % Peak Cocaine
mice [7] = test: locomotor activity, 8-h time course protocol; format: in vivo; details: for locomotor stimulant activity across the 1-h and 8-h protocols, in words: 1-h and 8-h tests compared; for Emax / ED50: Mus musculus; for Emax: read-out: Locomotor Activity 8-Hour % Peak Cocaine, percent of cocaine's maximal effect, 30 min period of maximum stimulation; for ED50: read-out: Locomotor Activity 8-Hour ED50; for Locomotor Activity 8-Hour Time, min Period, length: duration of locomotor activity; for Locomotor Activity 8-Hour Time, min Period, max: time period of maximum effect
rats [8] = test: cocaine discrimination (2-lever operant), i.p. administration
(h)NET [9] = target: T3, (h)NET; test: block of [3H]norepinephrine reuptake in HEK-(h)NET cells; details: read-out: Uptake, IC50 [3H]NE; mean ± standard error of three independent experiments
rats [10] = test: cocaine discrimination time-course study, oral administration; details: for generalization to cocaine: p.o.
[11] = [3H]5HT, read-out: IC50 for 5HT uptake inhibition
[12] = mean ± standard error of three independent experiments, read-out: Uptake, IC50 [3H]DA
[13] = dose to produce 50% of the compound's maximal effect, 8-h
[14] = Rattus norvegicus, ip, read-out: % cocaine lever responding
[15] = [3H]DA, read-out: IC50 for DA uptake inhibition

T1 sequence (Q01959 whole entry): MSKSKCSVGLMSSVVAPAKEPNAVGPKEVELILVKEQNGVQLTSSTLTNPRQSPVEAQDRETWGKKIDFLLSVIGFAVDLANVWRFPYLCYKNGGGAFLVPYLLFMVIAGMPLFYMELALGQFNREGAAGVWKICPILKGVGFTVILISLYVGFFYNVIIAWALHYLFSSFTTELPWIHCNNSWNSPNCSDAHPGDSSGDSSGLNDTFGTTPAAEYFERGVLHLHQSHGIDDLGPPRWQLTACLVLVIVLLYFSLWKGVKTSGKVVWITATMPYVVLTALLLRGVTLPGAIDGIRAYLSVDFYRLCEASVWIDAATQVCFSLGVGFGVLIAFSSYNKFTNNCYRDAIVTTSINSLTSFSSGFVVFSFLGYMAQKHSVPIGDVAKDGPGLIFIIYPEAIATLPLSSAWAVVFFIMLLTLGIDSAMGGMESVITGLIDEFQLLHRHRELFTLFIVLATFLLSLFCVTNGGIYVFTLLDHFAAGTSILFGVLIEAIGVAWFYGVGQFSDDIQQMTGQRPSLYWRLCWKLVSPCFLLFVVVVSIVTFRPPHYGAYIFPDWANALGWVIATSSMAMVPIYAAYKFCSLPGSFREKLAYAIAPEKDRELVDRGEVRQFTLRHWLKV

Question: With `C[C@@H](NC(C)(C)C)[C@H](O)c1ccccc1` (racemic) [Compound 7, (1RS,2RS)-2-(N-tert-Butylamino)-1-phenyl-1-propanol, reference compound] as the compound, how does the “affinity at the DAT, in words” value ((h)DAT [1]) read?
Answer: The value was “loss of affinity”.

Question: What about the IC50 ((h)SERT [2]; [11]) of the same compound?
Answer: Its IC50 is 1240 nM.

Question: What about the “affinity at the NET, in words” value ((h)NET [3]) of the same compound?
Answer: The value was “loss of affinity”.

Question: How did the Ki ((h)DAT [1]) turn out when `CC(NC(C)(C)C)C(=O)c1ccc(Br)cc1` (stereo not drawn) [Compound 2g, 2-(N-tert-Butylamino)-4′-bromopropiophenone] was run?
Answer: Its Ki is 1920 nM.

Question: What about the Ki ((h)SERT [4]) of the same compound?
Answer: The Ki was 4170 nM.

Question: And the IC50 ((h)DAT [5]; [12])?
Answer: The IC50 was 1300 nM.

Question: What about the IC50 ((h)SERT [2]; read-out: Uptake, IC50 [3H]5-HT) of the same compound?
Answer: Its IC50 is 2520 nM.

Question: What about the “Locomotor Activity 1-Hour ED50” value (mice [6]) of the same compound?
Answer: The value was “NE^f”.

Question: What about the “locomotor stimulant activity across the 1-h and 8-h protocols, in words” value (mice [7]) of the same compound?
Answer: The value was “inactive in the 1-h test but showed weak stimulant activity in the 8-h protocol”.

Question: And the Emax (mice [7])?
Answer: The Emax was 54%.

Question: And the ED50 (mice [7]; [13])?
Answer: Its ED50 is 32 mg/kg.

Question: And the “Locomotor Activity 8-Hour Time, min Period, length” value (mice [7])?
Answer: Its value is 160 min.

Question: What about the “Locomotor Activity 8-Hour Time, min Period, max” value (mice [7]) of the same compound?
Answer: Its value is 140 to 170 min.

Question: And the responders at 10 mg/kg (rats [8]; [14])?
Answer: Its responders at 10 mg/kg is 1%.

Question: What about the responders at 25 mg/kg (rats [8]; [14]) of the same compound?
Answer: The responders at 25 mg/kg was 17%.

Question: And the responders at 50 mg/kg (rats [8]; [14])?
Answer: The responders at 50 mg/kg was 17%.

Question: And the responders at 100 mg/kg (rats [8]; [14])?
Answer: The responders at 100 mg/kg was 0%.

Question: For `CC(NC(C)(C)C)C(=O)c1ccc(Cl)c(Cl)c1` (stereo not drawn) [Compound 2j, 2-(N-tert-Butylamino)-3′,4′-dichloropropiophenone], which Ki ((h)DAT [1]) is on record?
Answer: The Ki was 472 nM.

Question: What about the Ki ((h)SERT [4]) of the same compound?
Answer: The Ki was 1480 nM.

Question: And the IC50 ((h)DAT [5]; [15])?
Answer: Its IC50 is 271 nM.

Question: And the “times more potent than bupropion as DA uptake inhibitor” value ((h)DAT [5])?
Answer: The value was 3.5 times.

Question: What about the “Locomotor Activity 1-Hour ED50” value (mice [6]) of the same compound?
Answer: Its value is “NE^f”.

Question: And the Emax (mice [7])?
Answer: Its Emax is 61%.

Question: And the ED50 (mice [7]; [13])?
Answer: The ED50 was 39.1 mg/kg.

Question: What about the “Locomotor Activity 8-Hour Time, min Period, length” value (mice [7]) of the same compound?
Answer: Its value is 140 to 240 min.

Question: And the “onset and duration of locomotor activity, in words” value (mice [7]; mouse, in vivo)?
Answer: Its value is “very slow onset of stimulatory activity”.

Question: What about the IC50 ((h)NET [9]) of the same compound?
Answer: The IC50 was 2100 nM.

Question: What about the responders at 10 mg/kg (rats [8]; [14]) of the same compound?
Answer: Its responders at 10 mg/kg is 0%.

Question: And the responders at 25 mg/kg (rats [8]; [14])?
Answer: The responders at 25 mg/kg was 17%.

Question: What about the responders at 50 mg/kg (rats [8]; [14]) of the same compound?
Answer: Its responders at 50 mg/kg is 34%.

Question: And the responders at 100 mg/kg (rats [8]; [14])?
Answer: The responders at 100 mg/kg was 2%.

Question: What about the “generalization to the cocaine cue, in words” value (rats [8]; i.p.) of the same compound?
Answer: The value was “did not even show partial generalization”.

Question: And the Ki ((h)NET [3])?
Answer: Its Ki is 5400 nM.

Question: Which Ki ((h)DAT [1]) does the source give for `Cc1ccc(C(=O)C(C)NC(C)(C)C)cc1Cl` (stereo not drawn) [Compound 2k, 2-(N-tert-Butylamino)-3′-chloro-4′-methylpropiophenone] here?
Answer: Its Ki is 1150 nM.

Question: What about the Ki ((h)SERT [4]; mean ± standard error of three independent experiments) of the same compound?
Answer: The Ki was 2100 nM.

Question: And the IC50 ((h)DAT [5]; [15])?
Answer: The IC50 was 650 nM.

Question: What about the “times more potent than bupropion as DA uptake inhibitor” value ((h)DAT [5]) of the same compound?
Answer: Its value is 2 times.

Question: What about the IC50 ((h)SERT [2]; [11]) of the same compound?
Answer: The IC50 was 400 nM.

Question: What about the Emax (mice [6]) of the same compound?
Answer: Its Emax is 74%.

Question: And the ED50 (mice [6])?
Answer: The ED50 was 31.9 mg/kg.

Question: And the “locomotor stimulant activity across the 1-h and 8-h protocols, in words” value (mice [7])?
Answer: Its value is “moderate activity in the 1-h test with increased activity in the time-course study”.

Question: And the ED50 (mice [7]; 8 h)?
Answer: The ED50 was 60.8 mg/kg.

Question: And the Emax (mice [7])?
Answer: The Emax was 87%.

Question: What about the “Locomotor Activity 8-Hour Time, min Period, length” value (mice [7]) of the same compound?
Answer: The value was 60 min.

Question: What about the “Locomotor Activity 8-Hour Time, min Period, max” value (mice [7]) of the same compound?
Answer: The value was 10 to 40 min.

Question: And the IC50 ((h)NET [9])?
Answer: Its IC50 is 900 nM.

Question: What about the Ki ((h)NET [3]) of the same compound?
Answer: The Ki was 5100 nM.

Question: `Cc1cc(C(=O)C(C)NC(C)(C)C)ccc1Br` (stereo not drawn) [Compound 2l, 2-(N-tert-Butylamino)-4′-bromo-5′-methylpropiophenone] was tested. Which Ki ((h)SERT [4]) did it give?
Answer: The Ki was 1220 nM.

Question: What about the IC50 ((h)SERT [2]; read-out: IC50 for 5HT uptake inhibition) of the same compound?
Answer: The IC50 was 473 nM.

Question: What about the “Locomotor Activity 1-Hour ED50” value (mice [6]) of the same compound?
Answer: Its value is “NE^f”.

Question: And the Emax (mice [7])?
Answer: The Emax was 46%.

Question: What about the ED50 (mice [7]; [13]) of the same compound?
Answer: Its ED50 is 12.8 mg/kg.

Question: And the “Locomotor Activity 8-Hour Time, min Period, length” value (mice [7])?
Answer: The value was 240 min.

Question: What about the “Locomotor Activity 8-Hour Time, min Period, max” value (mice [7]) of the same compound?
Answer: Its value is 50 to 80 min.

Question: And the IC50 ((h)NET [9])?
Answer: Its IC50 is 1620 nM.

Question: What about the responders at 10 mg/kg (rats [8]; [14]) of the same compound?
Answer: The responders at 10 mg/kg was 0%.

Question: And the responders at 25 mg/kg (rats [8]; [14])?
Answer: The responders at 25 mg/kg was 0%.

Question: What about the responders at 50 mg/kg (rats [8]; [14]) of the same compound?
Answer: Its responders at 50 mg/kg is 17%.

Question: What about the responders at 100 mg/kg (rats [8]; [14]) of the same compound?
Answer: Its responders at 100 mg/kg is 67%.

Question: What about the Ki ((h)NET [3]) of the same compound?
Answer: The Ki was 4600 nM.

Question: With `CCCC(NC(C)(C)C)C(=O)c1cccc(Cl)c1` (stereo not drawn) [Compound 2p, 2-(N-tert-Butylamino)-3′-chloropentanophenone] as the compound, how does the Ki ((h)DAT [1]) read?
Answer: Its Ki is 96 nM.

Question: And the IC50 ((h)DAT [5]; [12])?
Answer: Its IC50 is 33 ± 7 nM.

Question: And the “times more potent than bupropion as DA uptake inhibitor” value ((h)DAT [5])?
Answer: The value was 29 times.

Question: What about the Emax (mice [6]) of the same compound?
Answer: Its Emax is 96%.

Question: What about the ED50 (mice [6]) of the same compound?
Answer: Its ED50 is 17.2 mg/kg.

Question: What about the “locomotor stimulant activity across the 1-h and 8-h protocols, in words” value (mice [7]) of the same compound?
Answer: The value was “activity similar to cocaine in the 1-h protocol but weakened significantly in the 8-h time-course study”.

Question: And the Emax (mice [7])?
Answer: Its Emax is 72%.

Question: And the ED50 (mice [7]; [13])?
Answer: The ED50 was 16.3 mg/kg.

Question: And the “Locomotor Activity 8-Hour Time, min Period, length” value (mice [7])?
Answer: Its value is 210 to 480 min.

Question: And the “Locomotor Activity 8-Hour Time, min Period, max” value (mice [7])?
Answer: The value was 90 to 120 min.

Question: What about the IC50 ((h)NET [9]) of the same compound?
Answer: The IC50 was 472 nM.

Question: What about the responders at 5 mg/kg (rats [8]; [14]) of the same compound?
Answer: The responders at 5 mg/kg was 1%.

Question: And the responders at 10 mg/kg (rats [8]; [14])?
Answer: Its responders at 10 mg/kg is 33%.

Question: And the responders at 25 mg/kg (rats [8]; [14])?
Answer: Its responders at 25 mg/kg is 83%.

Question: And the ED50 (rats [8]; Rattus norvegicus, ip, read-out: Full Generalization ED50)?
Answer: Its ED50 is 11.9 mg/kg.

Question: And the ED50 (rats [10]; Rattus norvegicus, po, 0.75 h)?
Answer: Its ED50 is 22.2 mg/kg.

Question: What about the generalization to cocaine (rats [10]; 45 min, 50 mg/kg) of the same compound?
Answer: The generalization to cocaine was “partial generalization”.

Question: And the generalization to cocaine (rats [10]; 45 min, 100 mg/kg)?
Answer: Its generalization to cocaine is “full generalization”.

Question: And the generalization to cocaine (rats [10]; 90 min, 100 mg/kg)?
Answer: Its generalization to cocaine is “full generalization”.

Question: And the generalization to cocaine (rats [10]; 180 min, 100 mg/kg)?
Answer: The generalization to cocaine was “partial generalization”.

Question: And the Ki ((h)NET [3])?
Answer: The Ki was 1170 nM.
